{
  "source": "patent US11896704B2",
  "about": "“Compounds useful for the treatment and/or care of the skin, hair, nails and/or mucous membranes” (LUBRIZOL ADVANCED MATERIALS, INC., priority 2017, dated 2024)",
  "key": {"[1]": {"system": "JARID1A protein (KDM5A)", "assay": "JARID1A protein level in synchronized human keratinocytes (HaCaT), ELISA normalized to total protein", "type": "cell-based", "details": "0.5 mg/ml, 7:30 hours, mean of at least six assays", "description": "In Vitro Study of JARID1A Protein Increase Protein Level by the Peptide […] (PEP-1, H-[SEQ ID. NO. 2]-NH2) on Synchronized Human Keratinocytes Using an ELISA Assay Based on Colorimetric Detection. HaCaT cells (human keratinocyte cell line, Deutsches Krebsforschungszentrum) are seeded at a density of 200.000 cells/well (2 wells per condition) in 12-well plates. Cells are seeded in culture medium Dulbecco's Modified Eagle Medium high GlutamaxTM (Fisher Scientific) supplemented with 10% (volume/volume) Fetal Bovine Serum (Cultek). […] Nuclear extracts are assayed to quantify the level of JARID1A protein and total protein concentration. JARID1A protein is quantified using an enzyme linked immunosorbent assay (Human lysine-specific demethylase 5A (KDM5A) (CUSABIO) according to the manufacturer's protocol. In brief, JARID1A protein is detected with the antibodies provided in the kit and quantified by a colorimetric reaction. Absorbance quantification is carried out by using a microplate reader (ClarioStar®, BMG) set to 450 nm and 570 nm. For wavelength correction, readings at 570 nm were subtracted from readings at 450 nm. Total protein concentration of cell lysate is determined by using Pierce BCA Protein Assay Kit (Thermo Scientific). […] After 30 minutes of incubation at 60° C., the change in colour is measured with the absorbance microplate reader (Clariostar®, BMG) at 562 nm. […]"}, "[2]": {"system": "mitochondrial complex I (NADH dehydrogenase)", "assay": "Mitochondrial complex I activity in human dermal fibroblasts, colorimetric assay", "type": "cell-based", "details": "HDFa, 48 hours", "description": "Inhibition of Mitochondrial Complex I Activity Using an Assay Based on Colorimetric Detection. Human Dermal Fibroblasts from adult (HDFa, Life Technologies) are seeded at a density of 750.000 cells/75 cm^2 flask (one flask per condition) in culture medium M106 with Low Serum Growth Supplement (Life Technologies). Cells are grown during 8 days at 37° C. in 5% CO2 humidified air. Then, medium is removed and cells are treated with scalar dilutions of the peptide […] (PEP-1, H-[SEQ ID. NO. 2]-NH2) at 1, 0.5 and 0.1 mg/ml in culture medium during 48 hours at 37° C. in 5% CO2 humidified air. Non-treated cells incubated in culture medium alone are used as basal conditions. […] After 48 hours of treatment, cells are detached using trypsin and resuspended in 60 ul of Phosphate buffer saline (Sigma). Total protein concentration is measured by a Pierce BCA Protein Assay Kit (BCA Assay, Thermo Scientific) following manufacturer's protocol to adjust the final protein concentration between 700-1000 ug/ml. Briefly, standards and samples are dispensed and Working Reagent is added to the samples. After 30 minutes of incubation at 37° C., absorbance is measured with a microplate reader (Clariostar®, BMG) at 562 nm. Mitochondrial complex I activity is measured with Complex I enzyme activity microplate assay Kit (Abcam) according to the manufacture's protocol. This assay follows the oxidation of NADH to NAD coupled to the reduction of a specific colorimetric dye, leading to an increase in absorbance at 450 nm. In brief, 200 ul of each sample (adjusted to 700-1000 ug/ml of total protein amount) is incubated for 3 hours. After that, wells are washed several times and incubated with Assay Solution provided with the kit (composed by NADH and the specific dye). For the determination of mitochondrial complex I activity, colorimetric increase of Optical Density (OD) at 450 nm in a kinetic reaction along 1 hour is measured with a microplate reader (Clariostar©, BMG). Results are calculated as the rate of increase in OD at 450 nm between two points in the linear zone over time. The percentage of mitochondrial complex I activity relative to basal conditions after the treatment with […] (PEP-1, H-[SEQ ID. NO. 2]-NH2) is represented in Table 9. These values represent the mean for at least three independent assays."}},
  "data": [
    {"substance": "H-Phe-Trp-Met-Lys-Arg-Lys-Arg-Val-Pro-NH2 (H-FWMKRKRVP-NH2) [PEP-1]", "values": [
      {"measurement": "Percentage of JARID1A protein relative to basal condition (%)", "setting": "[1]", "value": 126.84, "unit": "%"},
      {"measurement": "Percentage of mitochondrial complex I activity relative to basal condition (%)", "setting": "[2]; 0.1 mg/mL", "value": 83.23, "unit": "%"},
      {"measurement": "Percentage of mitochondrial complex I activity relative to basal condition (%)", "setting": "[2]; 0.5 mg/mL", "value": 71.68, "unit": "%"},
      {"measurement": "Percentage of mitochondrial complex I activity relative to basal condition (%)", "setting": "[2]; 1 mg/mL", "value": 55.35, "unit": "%"}
    ]}
  ]
}
